Data reported in patent US11345658B2, “Compounds and compositions comprising the same for treating hypertension or heart failure” (QUANTUM GENOMICS, priority 2019, dated 2022).
Blank lines part the entries; values can stand above or below the molecule they belong to.

Assays:
recombinant mouse APA = biological target: T1, recombinant mouse APA (Mus musculus, UniProt P16406); test: Measurement of APA activity in vitro (GluβNa hydrolysis, microplate); type: biochemical; conditions: 200 μM Glu-βNa, pH 7.4, 37° C., dithiothreitol, 4 mM CaCl2
T1 sequence (P16406 1-945): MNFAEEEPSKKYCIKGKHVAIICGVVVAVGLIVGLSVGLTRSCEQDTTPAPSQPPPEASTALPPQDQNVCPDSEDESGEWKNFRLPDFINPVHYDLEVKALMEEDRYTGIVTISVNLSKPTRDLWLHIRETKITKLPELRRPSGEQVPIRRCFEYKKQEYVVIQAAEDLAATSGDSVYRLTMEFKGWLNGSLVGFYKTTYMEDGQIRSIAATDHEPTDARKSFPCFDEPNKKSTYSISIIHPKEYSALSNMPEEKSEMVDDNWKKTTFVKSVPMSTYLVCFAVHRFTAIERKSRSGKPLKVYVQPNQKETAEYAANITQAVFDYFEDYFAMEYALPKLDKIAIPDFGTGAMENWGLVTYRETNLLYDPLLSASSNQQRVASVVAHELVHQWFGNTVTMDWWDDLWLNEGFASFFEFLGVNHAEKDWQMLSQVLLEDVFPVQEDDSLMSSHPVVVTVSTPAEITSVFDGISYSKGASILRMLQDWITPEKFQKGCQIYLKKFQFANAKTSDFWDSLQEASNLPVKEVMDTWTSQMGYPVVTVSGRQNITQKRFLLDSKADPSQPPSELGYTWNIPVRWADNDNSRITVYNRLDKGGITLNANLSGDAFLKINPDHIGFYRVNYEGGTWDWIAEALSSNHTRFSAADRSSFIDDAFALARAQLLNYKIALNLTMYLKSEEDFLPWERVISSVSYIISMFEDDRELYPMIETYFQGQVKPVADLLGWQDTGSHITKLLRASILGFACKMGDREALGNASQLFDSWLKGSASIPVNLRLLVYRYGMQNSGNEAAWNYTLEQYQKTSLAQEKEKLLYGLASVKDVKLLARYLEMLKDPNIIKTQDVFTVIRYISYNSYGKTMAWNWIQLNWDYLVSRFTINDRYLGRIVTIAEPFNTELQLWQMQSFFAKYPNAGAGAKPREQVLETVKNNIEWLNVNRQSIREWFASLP
Description: Measurement of APA activity in vitro is based on the protocol of Goldbarg adjusted to the scale of assaying on microplates (Pro Bind™ 3915) (Chauvel et al., 1994). In vitro, in the presence of calcium ions, APA hydrolyses a synthetic substrate α-L-glutamyl-β-naphthylamide (GluβNa) to glutamate and β-naphthylamine ([…]). A diazotation reaction in acidic medium makes it possible to reveal the β-naphthylamine by formation of a violet-colored complex: spectrophotometric measurement then makes it possible to know the amount of complex formed and, by reference to a standard curve produced with increasing concentrations of β-naphthylamine, to deduce the enzymatic activity of the sample.
The Glu-βNa substrate (Bachem) and the β-naphthylamine (Sigma) are dissolved in 50% DMSO (dimethyl sulphoxide) and 0.1 N HCl respectively, and conserved at −20° C. at a concentration of 10^−2 M. The diazotation reaction is carried out in the presence of sodium nitrite (87 mM), ammonium sulfamate (130 mM) and N-(1-naphthyl)-ethylenediamine dihydrochloride (23 mM in 95% ethanol). […]
The absorbance is then measured at 540 nm. […]

brain APA [1] = biological target: T2, brain APA (Mus musculus, UniProt P16406); test: Measurement of brain APA activity ex vivo after i.v. administration in mice; conditions: 50 mg/kg i.v., 180 min after administration
T2 construct: from tissue; host or cells: mouse brain homogenate
T2 sequence (P16406 1-945): T1 sequence (P16406 1-945)
Experimental: (§1) Brain APA activity was determined as described above
In vivo, in mice (male, 18-20 g Charles River), Example 1 was administered i.v. (50 mg/kg, in a volume of 200 μL).
(§2) For each condition, four to sixteen mice and five to seven rats were used. Animals were sacrificed 180 min after the administration. The brains were immediately removed and homogenized by sonication in 10 vol of ice-cold 50 mM Tris-HCl buffer (pH 7.4). APA enzymatic activity was measured on brain homogenates. For this purpose, aliquots of the tissue homogenate (16 μL) were incubated for 30 min at 37° C. with 200 μM of Glu-βNa, 4 mM CaCl2, and 1 μM bestatin inhibitor, with or without 5 μM EC33, in a total volume of 100 μL of 50 mM Tris-HCl buffer (pH 7.4). Then the assay was pursued as described above.

brain APA [2] = biological target: T3, brain APA (Rattus norvegicus, UniProt P50123); test: Measurement of brain APA activity ex vivo after p.o. administration in DOCA-salt rats; conditions: 8 mg/kg p.o., 180 min after administration
T3 construct: from tissue; host or cells: DOCA-salt rat brain homogenate
Experimental: as §1
In vivo, in DOCA-salt rats (male, 250 g Charles River), Example 2 was administered p.o. (8 mg/kg, in a volume of 400 μL).
as §2

[3] = system: hypertensive DOCA-salt rats; test: Measurement of mean arterial blood pressure (MABP) and heart rate (HR) in conscious hypertensive DOCA-salt rats; type: in vivo; conditions: 8 mg/kg p.o.
Experimental: Male DOCA-salt rats were anesthetized with 3% isoflurane (Iso-vet®, Piramal, UK) for induction and 1.5-2% isoflurane for maintenance. A catheter was inserted into the right femoral artery to monitor MABP and HR. The catheter was tunneled subcutaneously to exit from the neck. Animals were maintained for 2 days in the animal room, under frequent observation, before MABP and HR recording. Baseline MABP and HR were recorded for at least 60 min before Example 2 was administered p.o. (8 mg/kg, in a volume of 400 μL). MABP and HR were recorded continuously for 6 h after treatment.

post-MI mice = test: Left ventricular ejection fraction (LVEF) by echocardiography in mice post myocardial infarction; type: in vivo, CD1 mice; conditions: mice 4 weeks post MI, Mean±SEM
Experimental: Adult male CD1 mice were anesthetized with a mixture of 100 mg/kg ketamine (Imalgene 1000, Merial, Lyon, France) and 10 mg/kg xylazine (Rompun 2%, Bayer Healthcare, Loos, France), via intraperitoneal injection, intubated and ventilated at a rate of 200 insufflations/min, with a mean insufflate volume of 0.2 mL (Bioseb, France). The skin was disinfected and incised between the 2nd and 3rd intercostal space and the heart was exposed by left thoracotomy. Pericardium was opened and the left anterior descending (LAD) coronary artery infarction was permanently ligatured between the pulmonary artery trunk and the left atrial appendage, with 8/0 […] suture. (PVDF monofilament, 8-0, Peters Surgical, Bobigny, France). Ischemia was confirmed by visible left ventricle (LV) bleaching under the ligature. The thorax was then closed by three discontinuous points (PVDF monofil, 6/0, Peters Surgical, Bobigny, France) then mice received a subcutaneously injection of Meloxicam 1 mg/kg (Metacam, Boehringer Ingelheim, Germany) for prolonged analgesia. The pneumothorax was drained. The muscles and skin were then sutured (prolene thread 6-0, Peters Surgical, France) and the animals were rehydrated with saline at 37° C. Animals were extubated as soon as they could breathe spontaneously. The animal was placed in a cage and monitored regularly over 48 hours. Mice received an injection of Meloxicam 1 mg/kg, 24 hours postsurgery and up to 72 hours. The same surgical procedure was performed without LAD coronary artery ligation in sham-operated mice.
Post-MI mice received chronic oral treatment firibastat (RB150 used as a reference of brain APA inhibitor) at 150 mg/kg, ramipril (ACE inhibitor as standard treatment) at 1.25 mg/kg, or example 2 at 25 mg/kg with peanut butter vehicle. […] Cardiac function was evaluated regularly by trans-thoracic echocardiography at 4 weeks post MI to analyze the effects of different chronic oral treatment on heart contractility.

T3 sequence (P50123 whole entry): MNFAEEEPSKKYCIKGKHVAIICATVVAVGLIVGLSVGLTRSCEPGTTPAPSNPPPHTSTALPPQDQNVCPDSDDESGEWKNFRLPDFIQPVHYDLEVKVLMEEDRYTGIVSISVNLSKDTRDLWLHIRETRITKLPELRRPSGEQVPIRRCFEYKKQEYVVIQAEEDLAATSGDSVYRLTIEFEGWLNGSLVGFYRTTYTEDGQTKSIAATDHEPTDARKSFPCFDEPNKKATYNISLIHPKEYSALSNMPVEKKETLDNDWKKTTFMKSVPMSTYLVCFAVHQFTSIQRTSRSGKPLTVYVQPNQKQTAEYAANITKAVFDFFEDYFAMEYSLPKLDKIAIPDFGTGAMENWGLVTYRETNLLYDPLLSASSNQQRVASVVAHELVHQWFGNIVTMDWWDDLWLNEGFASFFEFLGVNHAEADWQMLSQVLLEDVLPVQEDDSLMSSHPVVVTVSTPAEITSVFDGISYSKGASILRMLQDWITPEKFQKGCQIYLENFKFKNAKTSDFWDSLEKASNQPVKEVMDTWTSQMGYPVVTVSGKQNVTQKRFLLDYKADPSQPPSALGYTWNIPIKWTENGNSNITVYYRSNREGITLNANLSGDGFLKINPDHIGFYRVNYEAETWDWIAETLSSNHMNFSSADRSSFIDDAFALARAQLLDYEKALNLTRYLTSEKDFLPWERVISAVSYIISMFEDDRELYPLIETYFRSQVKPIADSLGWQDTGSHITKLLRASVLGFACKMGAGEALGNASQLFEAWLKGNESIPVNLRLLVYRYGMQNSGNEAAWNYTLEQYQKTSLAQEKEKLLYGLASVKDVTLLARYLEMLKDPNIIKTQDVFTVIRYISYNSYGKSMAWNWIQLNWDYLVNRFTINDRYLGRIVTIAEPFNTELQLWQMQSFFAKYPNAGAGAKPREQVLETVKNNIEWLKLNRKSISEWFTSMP

In vitro inhibition of aminopeptidase A, Results (recombinant mouse APA): 0.81 ± 0.05 µM
decrease of brain APA activity (brain APA [1]; vs. control): 45%
SMILES: N[C@@H](CCS(=O)(=O)O)CSSC[C@H](N)C(=O)O [Example 1, (2R)-2-amino-3-{[(2S)-2-amino-4-sulfobutyl]disulfanyl}propanoic acid]
brain APA activity (brain APA [1]; brain homogenate): 39.6±5.2 nmol of Glu-βNa hydrolyzed per mg of protein per h

In vitro inhibition of aminopeptidase A, Results (recombinant mouse APA): 0.18 ± 0.02 µM
decrease of brain APA activity (brain APA [2]; vs. control): 29%
SMILES: N[C@@H](CSS[C@@H](CCc1ccccc1)[C@@H](N)CCS(=O)(=O)O)C(=O)O [Example 2, (2R)-2-amino-3-{[(3S,4S)-4-amino-1-phenyl-6-sulfohexan-3-yl]disulfanyl}propanoic acid]
brain APA activity (brain APA [2]; brain homogenate): 46.1±2.4 nmol of Glu-βNa hydrolyzed per mg of protein per h
effect on HR ([3]; 0 to 6 h after administration): no effect
decrease in MABP ([3]; 3 h after administration): −27±11 mmHg
decrease in MABP ([3]; 6 h after treatment): −44±8 mmHg
LVEF (post-MI mice; chronic oral 25 mg/kg once daily for 4 weeks): 50.6±0.9%

SMILES: N[C@@H](CCS(=O)(=O)O)CSSC[C@@H](N)CCS(=O)(=O)O [firibastat]
LVEF (post-MI mice; chronic oral 150 mg/kg once daily for 4 weeks): 50.9±1%

SMILES: CCOC(=O)[C@H](CCc1ccccc1)N[C@@H](C)C(=O)N1[C@H](C(=O)O)C[C@@H]2CCC[C@@H]21 [ramipril]
LVEF (post-MI mice; chronic oral 1.25 mg/kg once daily for 4 weeks): 48.4±1.2%
